ChEMBL document CHEMBL1201862, “PubChem BioAssay data set” (2004)
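Cultured in 96-well plates, cells were exposed to test compound for 48 hours across five concentrations. Abbreviation: GI50, concentration required for 50% inhibition of growth.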 Activity calls are given as the source filed them. Rule as the data show it: active = GI50 up to about 1.1 µM and inactive = higher.

Assays:
Test in all cases: NCI anticancer screen, dose series, 48 h
[1] = test system: COLO 205
[2] = test system: UACC-62
[3] = test system: SK-OV-3
[4] = test system: Malme-3M
[5] = test system: UO-31
[6] = test system: CCRF-CEM
[7] = test system: SF-539
[8] = test system: HT-29
[9] = test system: HOP-92
[10] = test system: SW-620
[11] = test system: SNB-19
[12] = test system: HCT-116
[13] = test system: HCC 2998
[14] = test system: M14
[15] = test system: NCI/ADR-RES
[16] = test system: Hs-578T
[17] = test system: MDA-N
[18] = test system: MCF7
[19] = test system: MDA-MB-435
[20] = test system: DU-145

Structure (SMILES)	GI50 [1]	GI50 [2]	GI50 [3]	GI50 [4]	GI50 [5]	GI50 [6]	GI50 [7]	GI50 [8]	GI50 [9]	GI50 [10]	GI50 [11]	GI50 [12]	GI50 [13]	GI50 [14]	GI50 [15]	GI50 [16]	GI50 [17]	GI50 [18]	GI50 [19]	GI50 [20]
COc1cc([C@@H]2c3cc4c(cc3[C@@H](NC(=O)c3cccc(C#N)c3)C3COC(=O)[C@@H]32)OCO4)cc(OC)c1O (some centres not stated)	2.96 µM (inactive)	0.308 µM (active)	0.912 µM (active)	0.65 µM (active)	5.47 µM (inactive)	0.0841 µM (active)	0.141 µM (active)	1.85 µM (inactive)	0.498 µM (active)	0.583 µM (active)	0.404 µM (active)	1.1 µM (active)	1.84 µM (inactive)	1.11 µM (active)						
CC[n+]1[b-](C(C)(C)C)n(/N=C(\C)C(C)(C)C)[b-](C(C)(C)C)[n+]1CC		> 100 µM (inactive)		> 100 µM (inactive)	> 100 µM (inactive)	> 100 µM (inactive)	> 100 µM (inactive)	> 100 µM (inactive)		> 100 µM (inactive)	> 100 µM (inactive)	> 100 µM (inactive)	> 100 µM (inactive)	> 100 µM (inactive)	87.1 µM (inactive)	> 100 µM (inactive)	> 10 µM (inactive)	> 100 µM (inactive)	> 100 µM (inactive)	
COC(C)(C)C1=CCC(C)CC1 (configuration not stated)	> 100 µM (inactive)	> 100 µM (inactive)	> 100 µM (inactive)	> 100 µM (inactive)	> 100 µM (inactive)		> 100 µM (inactive)	> 100 µM (inactive)	> 100 µM (inactive)	> 100 µM (inactive)	> 100 µM (inactive)	> 100 µM (inactive)	> 100 µM (inactive)	> 100 µM (inactive)		> 100 µM (inactive)	> 100 µM (inactive)	41.8 µM (inactive)	> 100 µM (inactive)	> 100 µM (inactive)
C=C(C(=O)OC)[C@H]1CC/C(C)=C/CC[C@@](C)(O)C=CC[C@@]2(C)O[C@@H]2C1	13.6 µM (inactive)	31.9 µM (inactive)	> 100 µM (inactive)		21.4 µM (inactive)		21.5 µM (inactive)	15.2 µM (inactive)	19.1 µM (inactive)	28.1 µM (inactive)	> 100 µM (inactive)	18.8 µM (inactive)	42.1 µM (inactive)	62.8 µM (inactive)	14.3 µM (inactive)		49.4 µM (inactive)	40.8 µM (inactive)	17.3 µM (inactive)	22.9 µM (inactive)
O=C1CCCc2ccc3c(c21)CC1(Cc2cc4c(cc2C1)CCCC4)C3	14.8 µM (inactive)	20.3 µM (inactive)	43.9 µM (inactive)	18.3 µM (inactive)	15.7 µM (inactive)	3.94 µM (inactive)	20.3 µM (inactive)	18.4 µM (inactive)	12.9 µM (inactive)	16 µM (inactive)	26.6 µM (inactive)	16.1 µM (inactive)	42.9 µM (inactive)	16.9 µM (inactive)	25.9 µM (inactive)	30.4 µM (inactive)		17.5 µM (inactive)	19.6 µM (inactive)	20.9 µM (inactive)
CC1=NC(=Cc2ccc([N+](=O)[O-])cc2)C(=O)N1n1c(-c2ccccc2)nc2ccccc2c1=O	46.6 µM (inactive)	43.3 µM (inactive)	68.9 µM (inactive)	53.7 µM (inactive)	31.6 µM (inactive)	32.8 µM (inactive)	67.3 µM (inactive)	37 µM (inactive)		36.7 µM (inactive)	55.2 µM (inactive)	32.1 µM (inactive)	57.9 µM (inactive)	46.7 µM (inactive)		50.2 µM (inactive)	49 µM (inactive)	29.1 µM (inactive)	47.6 µM (inactive)	51.8 µM (inactive)
CC(C)N(C(=O)C12CC3CC(CC(C3)C1)C2)C(C)C	> 50 µM (inactive)	> 50 µM (inactive)	> 50 µM (inactive)	> 50 µM (inactive)	> 50 µM (inactive)	> 50 µM (inactive)	> 50 µM (inactive)	> 50 µM (inactive)	> 50 µM (inactive)	> 50 µM (inactive)	> 50 µM (inactive)	> 50 µM (inactive)	> 50 µM (inactive)	> 50 µM (inactive)						
Cc1ccc(/C(=C/C=C(C#N)C#N)Sc2cc(Cl)ccc2Cl)cc1	4.86 µM (inactive)	3.85 µM (inactive)	8 µM (inactive)	16.9 µM (inactive)	8.81 µM (inactive)		3.18 µM (inactive)	3.81 µM (inactive)		1.66 µM (inactive)	5.97 µM (inactive)	0.83 µM (active)		4.48 µM (inactive)	2.42 µM (inactive)	2.42 µM (inactive)		17.5 µM (inactive)	2.43 µM (inactive)	3.4 µM (inactive)
O=C1c2cccnc2S(=O)(=O)N1c1ccc(Oc2ccccc2)cc1	> 100 µM (inactive)	> 100 µM (inactive)	41.4 µM (inactive)	> 100 µM (inactive)	> 100 µM (inactive)	90.4 µM (inactive)	> 100 µM (inactive)	> 100 µM (inactive)	> 100 µM (inactive)	> 100 µM (inactive)	> 100 µM (inactive)	> 100 µM (inactive)	> 100 µM (inactive)	> 100 µM (inactive)	> 100 µM (inactive)		> 100 µM (inactive)	> 100 µM (inactive)	> 100 µM (inactive)	> 100 µM (inactive)
C=CC/N=C1\N=C(C)C(C(=O)OCC)S1 (configuration not stated)	> 100 µM (inactive)	> 100 µM (inactive)	> 100 µM (inactive)	> 100 µM (inactive)	> 100 µM (inactive)	7.05 µM (inactive)	> 100 µM (inactive)	> 100 µM (inactive)	> 100 µM (inactive)	> 100 µM (inactive)	> 100 µM (inactive)	> 100 µM (inactive)	> 100 µM (inactive)	> 100 µM (inactive)						
C[Si]1(C)C(c2ccccc2)=CC2C(c3ccccc3)(c3ccccc3)OC21c1ccccc1 (configuration not stated)	> 100 µM (inactive)	> 100 µM (inactive)	> 100 µM (inactive)	33.6 µM (inactive)	> 100 µM (inactive)	> 100 µM (inactive)	> 100 µM (inactive)	43 µM (inactive)	48.5 µM (inactive)	> 100 µM (inactive)	> 100 µM (inactive)	28.2 µM (inactive)	> 100 µM (inactive)	43.8 µM (inactive)						
c1ccc2c(c1)[nH]c1nc3cc(-c4ccc5nc6c(nc5c4)[nH]c4ccccc46)ccc3nc12		> 72.9 µM (inactive)	> 100 µM (inactive)	> 100 µM (inactive)	> 100 µM (inactive)	12.9 µM (inactive)		> 100 µM (inactive)		> 100 µM (inactive)	> 100 µM (inactive)	> 69.7 µM (inactive)	> 79.1 µM (inactive)	> 100 µM (inactive)		> 100 µM (inactive)	> 100 µM (inactive)	20.5 µM (inactive)	> 100 µM (inactive)	> 100 µM (inactive)
O=C1/C(=C/c2ccccc2)N=C(c2ccccc2)N1C1Nc2cc3c(cc2S1)NC(N1C(=O)/C(=C/c2ccccc2)N=C1c1ccccc1)S3 (configuration not stated)			> 100 µM (inactive)		47.8 µM (inactive)	31.7 µM (inactive)	> 100 µM (inactive)	5.01 µM (inactive)	2.31 µM (inactive)	3.8 µM (inactive)		32.5 µM (inactive)	2.04 µM (inactive)	9.51 µM (inactive)	44.6 µM (inactive)		8.61 µM (inactive)	22.3 µM (inactive)	13.6 µM (inactive)	46.6 µM (inactive)
CC1CC/C(=C\c2ccc(Cl)cc2)c2nc(N)c(C#N)c(-c3ccc(Cl)cc3)c21 (configuration not stated)	41.4 µM (inactive)	20.5 µM (inactive)	> 100 µM (inactive)	13.4 µM (inactive)	27.7 µM (inactive)	23.5 µM (inactive)	48.8 µM (inactive)	30.7 µM (inactive)		55.3 µM (inactive)	29.9 µM (inactive)	84.9 µM (inactive)	26.1 µM (inactive)	57.8 µM (inactive)	55.1 µM (inactive)		88.1 µM (inactive)	22.8 µM (inactive)	23.9 µM (inactive)	
CC1CC(=O)NC2CC1C2(C)C (configuration not stated)	> 100 µM (inactive)	> 100 µM (inactive)		> 100 µM (inactive)	> 100 µM (inactive)	> 100 µM (inactive)		> 100 µM (inactive)	> 100 µM (inactive)	> 100 µM (inactive)	> 100 µM (inactive)		> 100 µM (inactive)	> 100 µM (inactive)		> 100 µM (inactive)	> 100 µM (inactive)	> 100 µM (inactive)	> 100 µM (inactive)	> 100 µM (inactive)
COc1ccc2nc3ccccc3c(NCCCCCCN(CCCl)CCCl)c2c1	0.014 µM (active)	0.0628 µM (active)	0.226 µM (active)	0.537 µM (active)	0.123 µM (active)	0.0107 µM (active)	0.215 µM (active)	0.0248 µM (active)	0.124 µM (active)	0.0199 µM (active)	0.328 µM (active)	0.0299 µM (active)	0.226 µM (active)	0.0946 µM (active)	0.0883 µM (active)		0.057 µM (active)	0.01 µM (active)	0.0482 µM (active)	0.0817 µM (active)
